Assay results: patent publication US10143681B2, “Factor XIa inhibitors” (MERCK SHARP & DOHME CORP., priority 2016, dated 2018)
pIC50: −log10 of the molar value.

Experiments:
Human plasma kallikrein = Human plasma kallikrein (Homo sapiens (Human), UniProt P03952); test: Kallikrein Assay; type: biochemical; conditions: purified Human plasma kallikrein 0.5 nM, substrate Acetyl-K-P-R-AFC; read-out: P. KLK IC50
Method: The effectiveness of a compound of the present invention as an inhibitor of Kallikrein can be determined using a relevant purified serine protease, and an appropriate synthetic substrate. The rate of hydrolysis of the chromogenic or fluorogenic substrate by the relevant serine protease was measured both in the absence and presence of compounds of the present invention. Assays were conducted at room temperature or at 37° C. […] A decrease in the rate of fluorescence change in the presence of inhibitor is indicative of enzyme inhibition. Such methods are known to one skilled in the art. The results of this assay are expressed as the half-maximal inhibitory concentrations (IC50), or the inhibitory constant, Ki.
Kallikrein determinations were made in 50 mM HEPES buffer at pH 7.4 containing 150 mM NaCl, 5 mM CaCl2, and 0.1% PEG 8000 (polyethylene glycol; Fisher Scientific). Determinations were made using purified Human plasma kallikrein at a final concentration of 0.5 nM (Enzyme Research Laboratories) and the synthetic substrate, Acetyl-K-P-R-AFC (Sigma # C6608) at a concentration of […].
Times required to achieve equilibration between enzyme and inhibitor were determined in control experiments. The reactions were performed under linear progress curve conditions and fluorescence increase measured at 405 Ex/510 Em nm. […] IC50 was determined by inflection point from a four parameter logistic curve fit. Ki was calculated using the Cheng Prusoff equation, Ki=IC50/(1+([S]/Km)).

[1] = tested on: Human plasma (intrinsic coagulation cascade); test: Activated Partial Thromboplastin Time (aPTT) Assay; conditions: concentration that causes a 50% (1.5×) increase of clot time over vehicle
Method: Activated partial thromboplastin time (aPTT) is a clotting test that measures the intrinsic coagulation cascade. The test is performed in sodium citrated plasma. Human plasma is made by collecting blood from healthy donors of both genders into Na citrate tubes (Sarstedt coagulation 9NC/10 ml). Blood is centrifuged at 1500×g and the plasma is collected. aPTT is checked on each individual donor and those within the normal range (28-40 seconds) are pooled, aliquoted, and stored at −80 C. Test samples are prepared by spiking inhibitors or vehicle into plasma. These spiked samples are then run on a coagulation analyzer (STA-R Evolution, Stago Diagnostica). In general, the analyzer performs the following steps: Factor XII is activated by addition of ellagic acid (Pacific Hemostasis), and then time to clot is measured after re-calcification of the sample. Inhibition of FXI will cause aPTT clot time to be prolonged. The data is expressed as percent increase over vehicle control clot time and the concentration that causes a 50% (1.5×) percent increase of clot time are reported.

human Factor XIa = human Factor XIa (Homo sapiens (Human), UniProt P03951); test: Factor XIa Assay; type: biochemical
Summary of the method: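 IC50 values were obtained from four-parameter log(inhibitor)-response fits of % inhibition, then converted to Ki using Cheng-Prusoff. GPR-AFC hydrolysis was read at 400/505 nm after 60 min at 25 °C.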

Sequence of Human plasma kallikrein (P03952 391-638): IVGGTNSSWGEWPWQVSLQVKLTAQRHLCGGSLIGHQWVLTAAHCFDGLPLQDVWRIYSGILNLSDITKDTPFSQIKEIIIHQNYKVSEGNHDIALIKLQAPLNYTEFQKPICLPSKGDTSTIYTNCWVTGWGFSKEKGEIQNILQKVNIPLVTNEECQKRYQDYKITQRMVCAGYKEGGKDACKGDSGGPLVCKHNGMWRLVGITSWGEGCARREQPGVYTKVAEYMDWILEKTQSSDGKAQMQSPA
Sequence of Human plasma kallikrein (P03952 20-390 partner): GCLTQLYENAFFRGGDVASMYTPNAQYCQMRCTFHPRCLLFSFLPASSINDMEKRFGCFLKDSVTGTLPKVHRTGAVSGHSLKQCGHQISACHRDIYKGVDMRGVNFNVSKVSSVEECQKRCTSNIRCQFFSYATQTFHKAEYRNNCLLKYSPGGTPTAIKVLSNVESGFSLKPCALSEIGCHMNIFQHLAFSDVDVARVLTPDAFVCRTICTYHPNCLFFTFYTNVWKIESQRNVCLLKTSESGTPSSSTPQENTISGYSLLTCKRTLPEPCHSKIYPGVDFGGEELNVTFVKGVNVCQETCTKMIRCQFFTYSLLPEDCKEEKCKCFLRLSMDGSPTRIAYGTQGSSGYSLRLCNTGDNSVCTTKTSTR
Sequence of human Factor XIa (P03951 388-625): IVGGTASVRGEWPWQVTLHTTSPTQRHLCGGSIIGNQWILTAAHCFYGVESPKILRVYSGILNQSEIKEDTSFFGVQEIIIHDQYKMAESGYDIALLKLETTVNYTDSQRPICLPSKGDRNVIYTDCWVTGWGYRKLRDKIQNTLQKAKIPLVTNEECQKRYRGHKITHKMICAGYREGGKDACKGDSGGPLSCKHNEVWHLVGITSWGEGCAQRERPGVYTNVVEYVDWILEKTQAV
Sequence of human Factor XIa (P03951 19-387 partner): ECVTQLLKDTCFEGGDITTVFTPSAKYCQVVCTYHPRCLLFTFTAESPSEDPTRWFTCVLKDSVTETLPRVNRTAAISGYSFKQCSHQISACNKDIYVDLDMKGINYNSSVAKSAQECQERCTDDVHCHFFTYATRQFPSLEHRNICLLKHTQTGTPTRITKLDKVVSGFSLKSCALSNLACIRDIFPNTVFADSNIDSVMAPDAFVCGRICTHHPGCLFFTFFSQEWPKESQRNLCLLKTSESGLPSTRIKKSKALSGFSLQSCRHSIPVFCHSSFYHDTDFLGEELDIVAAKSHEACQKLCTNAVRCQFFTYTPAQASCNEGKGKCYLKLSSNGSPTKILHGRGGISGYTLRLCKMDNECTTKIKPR

Structure (SMILES) | pIC50 (Human plasma kallikrein) | FXIa % Inh. @ 1000 nM (human Factor XIa; @ 1000 nM compound) | pIC50 (human Factor XIa; human Factor XIa 0.04 nM, 30 min pre-incubation at 25° C., substrate GPR-AFC, read-out: FXIa IC50) | aPTT (1.5x) [1]
O=C(O)c1ccc(NC(=O)C(CC2CCC2)c2ccc(-c3c(C(F)F)ccc(Cl)c3F)c[n+]2[O-])cc1F (single isomer, unassigned) [Example 120, 2-(1-((4-carboxy-3-fluorophenyl)amino)-3-cyclobutyl-1-oxopropan-2-yl)-5-(3-chloro-6-(difluoromethyl)-2-fluorophenyl)pyridine 1-oxide] | 8.68 | – | – | 0.75 µM
O=C(O)c1ccc(NC(=O)C(CC2CC(F)C2)c2ccc(-c3c(OC(F)F)ccc(Cl)c3F)c[n+]2[O-])cc1 (single isomer, unassigned) [Example 102, 2-(1-((4-carboxyphenyl)amino)-3-(3-fluorocyclobutyl)-1-oxopropan-2-yl)-5-(3-chloro-6-(difluoromethoxy)-2-fluorophenyl)pyridine 1-oxide] | 7.50 | – | – | 1 µM
O=C(O)c1ccc(NC(=O)C(CC2CC2C(F)(F)F)c2ccc(-c3c(C(F)F)ccc(Cl)c3F)c[n+]2[O-])cc1 (single isomer, unassigned) [Example 87, 2-(1-((4-carboxyphenyl)amino)-1-oxo-3-(2-(trifluoromethyl)cyclopropyl)propan-2-yl)-5-(3-chloro-6-(difluoromethyl)-2-fluorophenyl)pyridine 1-oxide] | 8.57 | – | – | 0.92 µM
CC1C(C)C1CC(C(=O)Nc1ccc(C(=O)O)cc1)c1ccc(-c2c(OC(F)F)ccc(Cl)c2F)c[n+]1[O-] (single isomer, unassigned) [Example 98, 2-(1-((4-carboxyphenyl)amino)-3-(2,3-dimethylcyclopropyl)-1-oxopropan-2-yl)-5-(3-chloro-6-(difluoromethoxy)-2-fluorophenyl)pyridine 1-oxide] | 7.95 | – | – | 0.72 µM

The next lines start with results.

pIC50 (Human plasma kallikrein) | FXIa % Inh. @ 1000 nM (human Factor XIa; @ 1000 nM compound) | pIC50 (human Factor XIa; human Factor XIa 0.04 nM, 30 min pre-incubation at 25° C., substrate GPR-AFC, read-out: FXIa IC50) | Structure (SMILES) | aPTT (1.5x) [1]
7.96 | – | – | COc1cc(C(CC2CC2)C(=O)Nc2ccc(C(=O)O)cc2)[n+]([O-])cc1-c1c(OC(F)F)ccc(Cl)c1F (single isomer, unassigned) [Example 71, 2-(1-((4-carboxyphenyl)amino)-3-cyclopropyl-1-oxopropan-2-yl)-5-(3-chloro-6-(difluoromethoxy)-2-fluorophenyl)-4-methoxypyridine 1-oxide] | 1.24 µM
7.33 | – | – | O=C(O)c1ccc(NC(=O)C(CC2CC(F)(F)C2)c2ccc(-c3c(OC(F)F)ccc(Cl)c3F)c[n+]2[O-])cc1 (racemic) [Example 50, (S)- and (R)-2-(1-((4-carboxyphenyl)amino)-3-(3,3-difluorocyclobutyl)-1-oxopropan-2-yl)-5-(3-chloro-6-(difluoromethoxy)-2-fluorophenyl)pyridine 1-oxide] | 1.33 µM
8.48 | – | – | COc1cc(C(CC2CC2)C(=O)Nc2ccc(C(=O)O)cc2)[n+]([O-])cc1-c1c(OC(F)F)ccc(Cl)c1F (single isomer, unassigned) [Example 70, 2-(1-((4-carboxyphenyl)amino)-3-cyclopropyl-1-oxopropan-2-yl)-5-(3-chloro-6-(difluoromethoxy)-2-fluorophenyl)-4-methoxypyridine 1-oxide] | 0.82 µM
7.85 | – | – | O=C(O)c1ccc(NC(=O)C(CC23CC(C2)C3)c2ccc(-c3c(OC(F)F)ccc(Cl)c3F)c[n+]2[O-])cc1 (single isomer, unassigned) [Example 52] | 1.17 µM
7.92 | – | – | O=C(O)c1ccc(NC(=O)C(C[C@H]2CC[C@H](O)CC2)c2ccc(-c3c(OC(F)F)ccc(Cl)c3F)c[n+]2[O-])cc1 (single isomer, unassigned) [Example 35] | 0.39 µM
6.70 | 45% | 6.00 | COC(=O)c1ccc(NC(=O)C(CC2CC2)c2ccc(-c3c(C(F)F)ccc(Cl)c3F)c[n+]2[O-])cc1 (single isomer, unassigned) [Example 114, 5-(3-chloro-6-(difluoromethyl)-2-fluorophenyl)-2-(3-cyclopropyl-1-((4-(methoxycarbonyl)phenyl)amino)-1-oxopropan-2-yl)pyridine 1-oxide] | –
